Measured values published in paper PMC8949375, “Design, Green Synthesis and Tailoring of Vitamin E TPGS Augmented Niosomal Nano-Carrier of Pyrazolopyrimidines as Potential Anti-Liver and Breast Cancer Agents with Accentuated Oral Bioavailability” (Pharmaceuticals, 2022).
Like-named read-outs stand apart in the source and are kept apart here.

Legend:
[1] = system: HepG2 cell line; assay: MTT cytotoxicity assay, HepG2; assay type: cell-based; conditions: Homo sapiens
Description: (§1) The human HCC cell line, HEPG-2, was obtained from the American Type Culture Collection and used to evaluate the effects of the following drugs. MCF-7(ATCC® HTB-22TM, Manassas, VA, USA) breast cancer cells were derived from mammary gland or breast at a metastatic site. […] The human Caco-2 cell line, Caco-2, was obtained from the American Type Culture Collection and used to evaluate the effects of the following drugs. […], Manassas, VA, USA), epithelial-like lung carcinoma, was derived from lung tissue at a metastatic site. The human A549 cell line, A549, was obtained from the American Type Culture Collection and used to evaluate the effects of the following drugs. […] LLC., Burlington, VT, USA). Penicillin/streptomycin (Gibco®, Grand Island, NY, USA) was applied at 100 units/mL and 100 μg/mL, respectively. Growth inhibition was determined by classic MTT assay. In brief, HEPG2, A549, MCF-7 and Caco-2 cells were added to a cell culture MTT assay plate at a concentration of 5 × 10^3 cells/well in 1640 medium and cultured overnight. The different treatments were added on day 1 according to the calculated doses except on the control well and standard, then incubated for 24 h.

[2] = system: MCF-7 cell line; assay: MTT cytotoxicity assay, MCF-7; assay type: cell-based; conditions: Homo sapiens, MCF7, read-out: IC50 MCF-7 Breast Cancer
Description: as §1

[3] = system: CaCo-2 cell line; assay: MTT cytotoxicity assay, CaCo-2; assay type: cell-based; conditions: Homo sapiens, read-out: IC50 CaCo-2 Colon Cancer
Description: (§2) • HepG2 [HEPG2] (ATCC® HB-8065™, Manassas, VA, USA) epithelial hepatocellular carcinoma was derived from the liver tissue of a person (a well-differentiated hepatocellular carcinoma). The human HCC cell line, HEPG-2, was obtained from the American Type Culture Collection and used to evaluate the effects of the following drugs. MCF-7(ATCC® HTB-22™, Manassas, VA, USA) breast cancer cells were derived from mammary gland or breast at a metastatic site. The human MCF-7 cell line, MCF-7, was obtained from the American Type Culture Collection and used to evaluate the effects of the following drugs. • Caco 2 [Caco2] (ATCC® HTB 37™, Manassas, VA, USA) epithelial colorectal adenocarcinoma was derived from the colon at a metastatic site. The human Caco-2 cell line, Caco-2, was obtained from the American Type Culture Collection and used to evaluate the effects of the following drugs. A549 (ATCC® CCL-185™, Manassas, VA, USA), epithelial-like lung carcinoma, was derived from lung tissue at a metastatic site. The human A549 cell line, A549, was obtained from the American Type Culture Collection and used to evaluate the effects of the following drugs.
(§3) HEPG2, A549, MCF-7 and Caco-2 cells were maintained in a monolayer culture in a T-25 flask at 5% CO2 and 37 °C in DMEM (Lonza, Verviers, Belgium) and supplemented with 10% (v/v) FBS (Sigma-Aldrich Co. LLC., Burlington, VT, USA). Penicillin/streptomycin (Gibco®, Grand Island, NY, USA) was applied at 100 units/mL and 100 µg/mL, respectively.
(§4) Growth inhibition was determined by classic MTT assay. In brief, HEPG2, A549, MCF-7 and Caco-2 cells were added to a cell culture MTT assay plate at a concentration of 5 × 10^3 cells/well in 1640 medium and cultured overnight. The different treatments were added on day 1 according to the calculated doses except on the control well and standard, then incubated for 24 h. Measurement was achieved using a microplate reader (Model 550, Bio-Rad, Hercules, CA, USA).

[4] = system: A-549 cell line; assay: MTT cytotoxicity assay, A-549; assay type: cell-based; conditions: Homo sapiens, A549, read-out: IC50 A-549 Lung Carcinoma
Description: as §2, §3, §4

[5] = system: HepG2, MCF-7, A-549 and CaCo-2 cell lines; assay: MTT cytotoxicity assay, summary over all tested cell lines; assay type: cell-based, human; conditions: Homo sapiens; range over compounds and cell lines; read-out: IC50 values versus all tested cell lines (collective range)
Description: as §2, §3, §4

[6] = system: VEGF protein expression level in HepG2 cell line; assay: VEGF ELISA in HepG2 cell culture supernatant; assay type: cell-based, human; design: concentration or dose not given beside the values; conditions: compared to control
Procedure: (§5) Total protein was assayed using the method described by Bradford. The VEGF ELISA Assay Kit (VEGF) and ELISA Kit, (#VGF31-[…]) were purchased from (Eagle Biosciences CO., LTD, Amherst, NH, USA). The kit is a sandwich enzyme immunoassay for the in vitro quantitative determination of VEGF concentrations in cell culture supernates, serum and plasma according to the manufacturer's instructions.

[7] = system: VEGF protein expression level in MCF-7 cell line; assay: VEGF ELISA in MCF-7 cell culture supernatant; assay type: cell-based, human; design: concentration or dose not given beside the values; conditions: MCF-7, ELISA, compared to control
Procedure: as §5

[8] = system: VEGFR-2 protein expression level in HepG2 cell line; assay: Human VEGF receptor-2 ELISA in HepG2; assay type: cell-based; design: concentration or dose not given beside the values; conditions: compared to control
Procedure: (§6) Total protein was assayed using the method described by Bradford. The Human VEGF receptor-2 ELISA Kit (ab213476), (96 tests) was purchased from (abcam®, Waltham, MA, USA). The kit is a sandwich enzyme immunoassay for the in vitro quantitative measurement of human VEGFR-2 in tissue homogenates, cell lysates and other biological fluids according to the manufacturer’s instructions.

[9] = system: VEGFR-2 protein expression level in MCF-7 cell line; assay: Human VEGF receptor-2 ELISA in MCF-7; assay type: cell-based; design: concentration or dose not given beside the values; conditions: MCF-7, ELISA, compared to control
Procedure: as §6

[10] = system: VEGF gene expression level in HepG2 cell line; assay: Real-time PCR of VEGF gene expression, HepG2; assay type: cell-based, human; conditions: HepG2, 3 days of treatment, compared to control, in words
Procedure: RT-PCR was applied to evaluate the VEGF gene expression level. Briefly, total RNA was extracted, and the extracted total RNA concentration was determined using a NanoDrop 2000 spectrophotometer (Thermo Fisher, Waltham, MA, USA). To determine the relative expression levels, the 2^−ΔΔCT method was used. NCBI/Primer Blast was used to define the primer sequences. The experiments were performed in quadruplicate. The primer sequences of VEGF and β-actin genes are listed below: […]

[11] = read-out: IC50 HepG2 Livercarcinoma

Row | Compound | IC50 [1, 11] | IC50 [2] | IC50 [3] | IC50 [4] | IC50 [5] | VEGF 24 h % Inhibition [6] | VEGF 72 h % Inhibition [6] | VEGF 24 h % Inhibition [7] | VEGF 72 h % Inhibition [7] | VEGFR-2 24 h % Inhibition [8] | VEGFR-2 72 h % Inhibition [8] | VEGFR-2 24 h % Inhibition [9] | VEGFR-2 72 h % Inhibition [9] | VEGF gene expression level [10] | melting point | IC50 ([1]; TPGS-coated vs uncoated niosomes vs pure compound, read-out: IC50 Hepg2 Liver Carcinoma)
1 | Cc1ccc(N=Nc2c(N)nn3c(C)c(N=Nc4cccc([N+](=O)[O-])c4)c(=O)[nH]c23)cc1 [Compound 4b, 2-Amino-7-methyl-6-((3-nitrophenyl)diazenyl)-3-(4-tolyldiazenyl)pyrazolo[1,5-a]pyrimidin-5(4H)-one] | 12.5 µM | 25 µM | 15.4 µM | 14 µM | 6 to 50 µM | 46% | 41.7% | 40% | 50% | 42% | 38.5% | 50% | 50% | great inhibition | 228 to 230 °C | –
2 | Cc1ccc(N=Nc2c(N)nn3c(N)c(N=Nc4ccc(S(=O)(=O)N=C(N)N)cc4)c(O)nc23)cc1 [Compound 2a, 4-((2,7-Diamino-5-hydroxy-3-(4-tolyldiazenyl)pyrazolo[1,5-a]pyrimidin-6-yl)diazenyl)-N-(diaminomethylene)benzenesulfonamide] | 6.2 µM | 20 µM | 12.5 µM | 10 µM | 6 to 50 µM | 38.5% | 33.3% | 40% | 50% | 47.4% | 38.5% | 50% | 50% | great inhibition | 268 to 270 °C | 6.5 µM
